Measured values: PubChem BioAssay (NCI)
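Following 48 hours of exposure in 96-well plates, responses at five concentrations were used to interpolate endpoints linearly. The concentration for 50% growth inhibition is given as GI50. TGI: total growth inhibition.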

Key:
Assay in all cases: NCI-60 cell line screen, 48 h
A498 renal = system: A498 renal
COLO 205 colon = system: COLO 205 colon
HOP-62 NSCLC = system: HOP-62 NSCLC
HOP-92 NSCLC = system: HOP-92 NSCLC
NCI-H522 lung = system: NCI-H522 lung
OVCAR-8 ovarian = system: OVCAR-8 ovarian
SN12C renal = system: SN12C renal
SNB-19 CNS = system: SNB-19 CNS
U251 CNS = system: U251 CNS
UO-31 renal = system: UO-31 renal

SMILES: CCCCCCC1CCCCN1C(c1ccccc1)C(O)c1ccccc1 (centres undefined)
- GI50 (A498 renal): 11.1 µM
- TGI (A498 renal): 23.5 µM
- GI50 (COLO 205 colon): 3.09 µM
- TGI (COLO 205 colon): 11.4 µM
- GI50 (HOP-62 NSCLC): 10.3 µM
- TGI (HOP-62 NSCLC): 22.5 µM
- GI50 (HOP-92 NSCLC): 2.84 µM
- TGI (HOP-92 NSCLC): 9.05 µM
- GI50 (NCI-H522 lung): 5.1 µM
- TGI (NCI-H522 lung): 18.5 µM
- GI50 (OVCAR-8 ovarian): 14.8 µM
- TGI (OVCAR-8 ovarian): 31.5 µM
- GI50 (SN12C renal): 6.5 µM
- TGI (SN12C renal): 20.3 µM
- GI50 (SNB-19 CNS): 15.1 µM
- TGI (SNB-19 CNS): 30 µM
- GI50 (U251 CNS): 5.98 µM
- TGI (U251 CNS): 18.9 µM
- GI50 (UO-31 renal): 5.69 µM
- TGI (UO-31 renal): 19.8 µM

SMILES: O=[N+]([O-])/C(=C/C=C/c1ccccc1)c1ccccc1
- GI50 (A498 renal): 3.78 µM
- TGI (A498 renal): 9.66 µM
- GI50 (COLO 205 colon): 1.83 µM
- TGI (COLO 205 colon): 3.35 µM
- GI50 (HOP-62 NSCLC): 7.29 µM
- TGI (HOP-62 NSCLC): 21.4 µM
- GI50 (HOP-92 NSCLC): 1.54 µM
- TGI (HOP-92 NSCLC): 3.8 µM
- GI50 (NCI-H522 lung): 1.62 µM
- TGI (NCI-H522 lung): 4.08 µM
- GI50 (OVCAR-8 ovarian): 3.27 µM
- TGI (OVCAR-8 ovarian): 11.2 µM
- GI50 (SN12C renal): 1.85 µM
- TGI (SN12C renal): 4.03 µM
- GI50 (SNB-19 CNS): 3.33 µM
- TGI (SNB-19 CNS): 10.6 µM
- GI50 (U251 CNS): 1.67 µM
- TGI (U251 CNS): 3.17 µM
- GI50 (UO-31 renal): 1.46 µM
- TGI (UO-31 renal): 3.19 µM

SMILES: O=C1Cc2c([nH]c3ccccc23)-c2cc(Br)ccc2N1
- TGI (A498 renal): > 100 µM
- TGI (COLO 205 colon): > 100 µM
- TGI (HOP-62 NSCLC): > 100 µM
- TGI (HOP-92 NSCLC): > 100 µM
- TGI (NCI-H522 lung): > 100 µM
- TGI (OVCAR-8 ovarian): > 100 µM
- TGI (SN12C renal): > 100 µM
- TGI (SNB-19 CNS): > 100 µM
- TGI (U251 CNS): > 100 µM
- TGI (UO-31 renal): > 100 µM

SMILES: CN(Cc1cnc2nc(N)nc(N)c2n1)c1c(Cl)cc(C(=O)NC(CCC(=O)O)C(=O)O)cc1Br (centres undefined)
- GI50 (A498 renal): 0.0302 µM
- TGI (A498 renal): > 100 µM
- GI50 (COLO 205 colon): 0.0535 µM
- TGI (COLO 205 colon): > 100 µM
- GI50 (HOP-62 NSCLC): < 0.0221 µM
- TGI (HOP-62 NSCLC): > 100 µM
- GI50 (HOP-92 NSCLC): > 100 µM
- TGI (HOP-92 NSCLC): > 100 µM
- GI50 (NCI-H522 lung): 0.0391 µM
- TGI (NCI-H522 lung): > 100 µM
- GI50 (OVCAR-8 ovarian): < 0.01 µM
- TGI (OVCAR-8 ovarian): > 100 µM
- GI50 (SN12C renal): < 0.01 µM
- TGI (SN12C renal): > 100 µM
- GI50 (SNB-19 CNS): 0.031 µM
- TGI (SNB-19 CNS): > 100 µM
- GI50 (U251 CNS): < 0.0237 µM
- TGI (U251 CNS): > 100 µM
- GI50 (UO-31 renal): < 0.01 µM

SMILES: CCCC/C=C1/CCC(CN(C)C)C1=O (centres undefined)
- TGI (A498 renal): 15.9 µM
- TGI (COLO 205 colon): 3.04 µM
- TGI (HOP-62 NSCLC): 35.2 µM
- TGI (HOP-92 NSCLC): 3.83 µM
- TGI (NCI-H522 lung): 1.39 µM
- TGI (OVCAR-8 ovarian): 4.08 µM
- TGI (SN12C renal): 3.63 µM
- TGI (SNB-19 CNS): 12.3 µM
- TGI (U251 CNS): 4.19 µM
- TGI (UO-31 renal): 5.97 µM

SMILES: O=C(/C=C/c1ccccn1)c1ccccc1
- GI50 (A498 renal): 14.9 µM
- TGI (A498 renal): 28.3 µM
- GI50 (COLO 205 colon): 4.04 µM
- TGI (COLO 205 colon): 14.6 µM
- GI50 (HOP-62 NSCLC): 10.2 µM
- TGI (HOP-62 NSCLC): 22 µM
- GI50 (HOP-92 NSCLC): 10.4 µM
- TGI (HOP-92 NSCLC): 23.6 µM
- GI50 (NCI-H522 lung): 1.65 µM
- TGI (NCI-H522 lung): 3.1 µM
- GI50 (OVCAR-8 ovarian): 4.18 µM
- TGI (OVCAR-8 ovarian): 16.1 µM
- GI50 (SN12C renal): 4.33 µM
- TGI (SN12C renal): 17.1 µM
- GI50 (SNB-19 CNS): 12 µM
- TGI (SNB-19 CNS): 26.7 µM
- GI50 (U251 CNS): 1.94 µM
- TGI (U251 CNS): 5.43 µM
- GI50 (UO-31 renal): 12.2 µM
- TGI (UO-31 renal): 29.9 µM

SMILES: CNC(=O)N(CCCCC(NC(C)=O)C(=O)NCc1ccccc1)Cc1ccccc1 (centres undefined)
- TGI (A498 renal): > 100 µM
- TGI (COLO 205 colon): > 100 µM
- TGI (HOP-62 NSCLC): > 100 µM
- TGI (HOP-92 NSCLC): > 100 µM
- TGI (NCI-H522 lung): > 100 µM
- TGI (OVCAR-8 ovarian): > 100 µM
- TGI (SN12C renal): > 100 µM
- TGI (SNB-19 CNS): > 100 µM
- TGI (U251 CNS): > 100 µM
- TGI (UO-31 renal): > 100 µM

SMILES: COc1cc(C(=O)/C=C/c2c(C)n([O-])c3ccc(Cl)cc3[n+]2=O)cc(OC)c1OC
- GI50 (A498 renal): 0.208 µM
- TGI (A498 renal): 41 µM
- GI50 (COLO 205 colon): 1.53 µM
- TGI (COLO 205 colon): 4.54 µM
- GI50 (HOP-62 NSCLC): 21.6 µM
- TGI (HOP-62 NSCLC): 71 µM
- GI50 (HOP-92 NSCLC): 4.47 µM
- TGI (HOP-92 NSCLC): > 100 µM
- GI50 (NCI-H522 lung): 1.12 µM
- TGI (NCI-H522 lung): 2.8 µM
- GI50 (OVCAR-8 ovarian): 3.18 µM
- TGI (OVCAR-8 ovarian): > 100 µM
- GI50 (SN12C renal): 10.4 µM
- TGI (SN12C renal): > 100 µM
- GI50 (SNB-19 CNS): 30.2 µM
- TGI (SNB-19 CNS): > 100 µM
- GI50 (U251 CNS): 4.52 µM
- TGI (U251 CNS): 72.3 µM
- GI50 (UO-31 renal): 1.82 µM
- TGI (UO-31 renal): 18.1 µM

SMILES: O=C([CH-]C(=O)c1ccccc1)c1ccccc1.[CH2-]C.[CH2-]C.[Tl+3]
- GI50 (A498 renal): 48.9 µM
- TGI (A498 renal): > 100 µM
- GI50 (COLO 205 colon): 26.6 µM
- TGI (COLO 205 colon): > 100 µM
- GI50 (HOP-62 NSCLC): 22.2 µM
- TGI (HOP-62 NSCLC): > 90.2 µM
- GI50 (HOP-92 NSCLC): 21.6 µM
- TGI (HOP-92 NSCLC): > 72.8 µM
- GI50 (NCI-H522 lung): 21.5 µM
- TGI (NCI-H522 lung): > 85.2 µM
- GI50 (OVCAR-8 ovarian): 15.7 µM
- TGI (OVCAR-8 ovarian): > 86.5 µM
- GI50 (SN12C renal): 14.4 µM
- TGI (SN12C renal): > 100 µM
- GI50 (SNB-19 CNS): 31.2 µM
- TGI (SNB-19 CNS): > 100 µM
- GI50 (U251 CNS): 11.8 µM
- TGI (U251 CNS): > 100 µM
- GI50 (UO-31 renal): 22.3 µM
- TGI (UO-31 renal): > 77.2 µM

SMILES: Cc1cc(N(CCC#N)CCC#N)ccc1/C=C1N=C(/C=C\c2ccccc2)N(c2ccc(C(=O)O)cc2)C\1=O
- TGI (A498 renal): > 100 µM
- TGI (COLO 205 colon): > 100 µM
- TGI (HOP-62 NSCLC): > 100 µM
- TGI (HOP-92 NSCLC): > 100 µM
- TGI (NCI-H522 lung): > 100 µM
- TGI (OVCAR-8 ovarian): > 100 µM
- TGI (SN12C renal): > 100 µM
- TGI (SNB-19 CNS): > 100 µM
- TGI (U251 CNS): > 100 µM
- TGI (UO-31 renal): > 100 µM

SMILES: Cn1cc(C2=C(c3cccc([N+](=O)[O-])c3)C(=O)NC2=O)c2ccccc21
- GI50 (A498 renal): 0.539 µM
- TGI (A498 renal): 1.81 µM
- GI50 (COLO 205 colon): 8.32 µM
- TGI (COLO 205 colon): > 25 µM
- GI50 (HOP-62 NSCLC): 7.47 µM
- TGI (HOP-62 NSCLC): > 25 µM
- GI50 (HOP-92 NSCLC): 4.22 µM
- TGI (HOP-92 NSCLC): > 20.6 µM
- GI50 (NCI-H522 lung): 7.66 µM
- TGI (NCI-H522 lung): > 22.5 µM
- GI50 (OVCAR-8 ovarian): 6.81 µM
- TGI (OVCAR-8 ovarian): > 22.4 µM
- GI50 (SN12C renal): 9.61 µM
- TGI (SN12C renal): > 25 µM
- GI50 (SNB-19 CNS): 19.6 µM
- TGI (SNB-19 CNS): > 25 µM
- GI50 (U251 CNS): 5.9 µM
- TGI (U251 CNS): > 25 µM
- GI50 (UO-31 renal): 6.46 µM
- TGI (UO-31 renal): > 25 µM

SMILES: CC(C)OC(=O)c1cc(NC(=S)OC(C)C)ccc1Cl
- TGI (A498 renal): > 51.1 µM
- TGI (COLO 205 colon): 22.2 µM
- TGI (HOP-62 NSCLC): > 100 µM
- TGI (HOP-92 NSCLC): 46.4 µM
- TGI (NCI-H522 lung): 26.6 µM
- TGI (OVCAR-8 ovarian): > 64.8 µM
- TGI (SN12C renal): 34.4 µM
- TGI (SNB-19 CNS): > 56.3 µM
- TGI (U251 CNS): > 57.6 µM
- TGI (UO-31 renal): 54.3 µM
